Experimental data published in patent US7354927B2, “6H-[1]benzopyrano[4,3-b]quinolines and their use as estrogenic agents” (Wyeth, priority 2004, dated 2008).

What was measured:
human ERβ = molecular target: T1, human ERβ (Homo sapiens, UniProt Q92731); experiment: Competition with [3H]-17β-estradiol for binding to the ERβ ligand binding domain; details: for IC50: E. coli lysate expressing human ERβ LBD, 2 nM [3H]-17β-estradiol, 5-15 hours at room temperature
T1 construct: made in house; host or cells: E. coli (crude lysate)
Description: (§1) Representative examples of the invention were evaluated for their ability to compete with 17β-estradiol for both ERα and ERβ. The test procedure used allows one to determine whether a particular compound binds to the estrogen receptor (and is therefore “estrogenic”) and whether there is selectivity for ERα or ERβ. […] The IC50 is defined as the concentration of compound that decreases total 17β-estradiol binding by 50%. The procedure used is briefly described. A crude lysate of E. coil expressing the estrogen receptor ligand binding domains (D, E, and F) of human ERα or ERβ was prepared. Both receptors and compounds were diluted in 1× Dulbecco's phosphate buffered saline (DPBS) supplemented with 1 mM ethylenediamine tetraacetic acid (EDTA). Using a high binding masked microtiter plate, 100 uL of receptor (1 uG/well) was combined with 2 nM [^3H]-17β-estradiol and various concentrations of compound. After between 5 and 15 hours at room temperature, the plates were washed with DPBS/1 mM EDTA and bound radioactivity determined by liquid scintillation counting.

human ERα = molecular target: T2, human ERα (Homo sapiens, UniProt P03372); experiment: Competition with [3H]-17β-estradiol for binding to the ERα ligand binding domain; details: E. coli lysate expressing human ERα LBD; 2 nM [3H]-17β-estradiol; 5-15 hours at room temperature
T2 construct: made in house; host or cells: E. coli (crude lysate)
T2 sequence (P03372 311-547 limits assumed): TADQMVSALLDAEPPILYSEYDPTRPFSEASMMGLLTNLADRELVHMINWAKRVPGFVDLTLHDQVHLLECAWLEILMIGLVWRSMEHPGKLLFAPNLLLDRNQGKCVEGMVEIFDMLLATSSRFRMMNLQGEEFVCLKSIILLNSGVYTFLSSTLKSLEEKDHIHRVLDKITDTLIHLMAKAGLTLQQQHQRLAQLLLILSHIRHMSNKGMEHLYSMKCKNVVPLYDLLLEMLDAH
Description: as §1

T1 sequence (Q92731 264-498 limits assumed): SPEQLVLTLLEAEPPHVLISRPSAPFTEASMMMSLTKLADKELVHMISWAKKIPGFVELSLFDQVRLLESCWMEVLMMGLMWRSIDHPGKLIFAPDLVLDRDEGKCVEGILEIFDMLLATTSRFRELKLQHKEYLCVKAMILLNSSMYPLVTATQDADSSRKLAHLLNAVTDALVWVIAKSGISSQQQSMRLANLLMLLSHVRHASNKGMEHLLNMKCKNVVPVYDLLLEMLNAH

SMILES	melting point	IC50 (human ERβ)	α/β receptor selectivity (ratio of ERα IC50 to ERβ IC50) (human ERβ)	IC50 (human ERα)
C#Cc1c2c(nc3ccc(O)cc13)-c1ccc(O)cc1OC2 [Cpd 10, 3,9-DIHYDROXY-7-ETHYNYL-6H-CHROMENO[4,3-b]QUINOLINE]	220 °C (dec.)	37 nM	3	131 nM
N#Cc1c2c(nc3ccc(O)cc13)-c1ccc(O)cc1OC2 [Cpd 12, 7-CYANO-3,9-DIHYDROXY-6H-CHROMENO[4,3-b]QUINOLINE]		5.6 nM	7	40 nM
Oc1ccc2c(c1)OCc1c-2nc2ccc(O)cc2c1-c1ccc(C(F)(F)F)cc1 [Cpd 16, 3,9-DIHYDROXY-7-[4-(TRIFLUOROMETHYL)PHENYL]-6H-CHROMENO[4,3-b]QUINOLINE]	175 to 177 °C (dec.)	137 nM	44	6090 nM
COc1cccc(-c2c3c(nc4ccc(O)cc24)-c2ccc(O)cc2OC3)c1 [Cpd 18, 3,9-DIHYDROXY-7-(3-METHOXYPHENYL)-6H-CHROMENO[4,3-b]QUINOLINE]	155 to 158 °C (dec.)	86 nM	10	820 nM
N#Cc1ccc(-c2c3c(nc4ccc(O)cc24)-c2ccc(O)cc2OC3)cc1 [Cpd 14, 7-(4-CYANOPHENYL)-3,9-DIHYDROXY-6H-CHROMENO[4,3-b]QUINOLINE]	295 °C (dec.)	82 nM	17	1420 nM
Oc1ccc2c(c1)OCc1c-2nc2ccc(O)cc2c1-c1cccc(Cl)c1 [Cpd 17, 7-(3-CHLOROPHENYL)-3,9-DIHYDROXY-6H-CHROMENO[4,3-b]QUINOLINE]	162 to 165 °C (dec.)	130 nM	4	505 nM
COc1ccc2c(c1)OCc1c-2nc2ccc(OC)cc2c1Br [Cpd 5, 7-BROMO-3,9-DIMETHOXY-6H-CHROMENO[4,3-b]QUINOLINE]	196 to 197 °C			
COc1ccc(-c2c3c(nc4ccc(O)cc24)-c2ccc(O)cc2OC3)cc1 [Cpd 15, 3,9-DIHYDROXY-7-(4-METHOXYPHENYL)-6H-CHROMENO[4,3-b]QUINOLINE]	195 °C (dec.)	61 nM	6	357 nM
Oc1ccc2c(c1)OCc1c-2nc2ccc(O)cc2c1Cl [Cpd 6, 7-CHLORO-3,9-DIHYDROXY-6H-CHROMENO[4,3-b]QUINOLINE]	235 °C (dec.)	3.3 nM	27	88 nM
Oc1ccc2c(c1)OCc1c-2nc2ccc(O)cc2c1Br [Cpd 7, 7-BROMO-3,9-DIHYDROXY-6H-CHROMENO[4,3-b]QUINOLINE]	240 °C (dec.)	3.6 nM	18	63 nM
Oc1ccc2c(c1)OCc1c-2nc2ccc(O)cc2c1-c1ccc(Cl)cc1 [Cpd 13, 7-(4-CHLOROPHENYL)-3,9-DIHYDROXY-6H-CHROMENO[4,3-b]QUINOLINE]	215 to 218 °C (dec.)	160 nM	19	3090 nM
C[Si](C)(C)C#Cc1c2c(nc3ccc(O)cc13)-c1ccc(O)cc1OC2 [Cpd 9, 3,9-DIHYDROXY-7-[(TRIMETHYLSILYL)ETHYNYL]-6H-CHROMENO[4,3-b]QUINOLINE]	160 °C (dec.)	225 nM	0.8	169 nM
CCc1c2c(nc3ccc(O)cc13)-c1ccc(O)cc1OC2 [Cpd 11, 3,9-DIHYDROXY-7-ETHYL-6H-CHROMENO[4,3-b]QUINOLINE]	145 °C (dec.)	5 nM	13	66 nM
C=Cc1c2c(nc3ccc(O)cc13)-c1ccc(O)cc1OC2 [Cpd 8, 3,9-DIHYDROXY-7-VINYL-6H-CHROMENO[4,3-b]QUINOLINE]	160 °C (dec.)	31 nM	18	548 nM
N#Cc1cccc(-c2c3c(nc4ccc(O)cc24)-c2ccc(O)cc2OC3)c1 [Cpd 19, 7-(3-CYANOPHENYL)-3,9-DIHYDROXY-6H-CHROMENO[4,3-b]QUINOLINE]	275 °C (dec.)	150 nM	8	1130 nM
COc1ccc2c(c1)OCc1c-2nc2ccc(OC)cc2c1Cl [Cpd 4, 7-CHLORO-3,9-DIMETHOXY-6H-CHROMENO[4,3-b]QUINOLINE]	190 to 191 °C			
